What was measured:
Type in all cases: in vivo
[1] = system: barnyardgrass (Echinochloa crus-galli); assay: Test G Pre-Emergence Protocol; settings: Echinochloa crus-galli, pre-emergence, 312 h, evaluated after 13 days
Method in brief: (§1)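 Seeds were sown in standard soil and kept one day in a glasshouse (24/16° C day/night, 14 h light, 65% humidity), then sprayed with compound in acetone/water (50:50) containing 0.5% Tween 20 at 15.625, 62.5 or 250 g/ha. Damage was scored after 13 days (0 = none, 100 = total).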

[2] = system: giant foxtail (Setaria faberi); assay: Test G Pre-Emergence Protocol; settings: Setaria faberi, pre-emergence, 312 h, evaluated after 13 days
Method in brief: as §1

[3] = system: ivy-leaved morning glory (Ipomoea hederacea); assay: Test G Pre-Emergence Protocol; settings: Ipomoea, pre-emergence, 312 h, evaluated after 13 days
Method in brief: as §1

[4] = system: redroot pigweed (Amaranthus retroflexus); assay: Test G Pre-Emergence Protocol; settings: Amaranthus retroflexus, pre-emergence, 312 h, evaluated after 13 days
Method in brief: as §1

[5] = system: velvetleaf (Abutilon theophrasti); assay: Test G Pre-Emergence Protocol; settings: Abutilon theophrasti, pre-emergence, 312 h, evaluated after 13 days
Method in brief: as §1

corn (Zea mays) [6] = assay: Test G Pre-Emergence Protocol; settings: Zea mays, pre-emergence, 312 h, evaluated after 13 days
Method in brief: as §1

[7] = system: barnyardgrass (Echinochloa crus-galli); assay: Test G Post-Emergence Protocol; settings: Echinochloa crus-galli, post-emergence, 312 h
Method in brief: (§2)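 Post-emergence herbicidal damage, scored visually 0–100 at 13 days. Application at 15.625, 62.5 or 250 g/ha onto 8-day-old plants grown under glasshouse control.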

[8] = system: giant foxtail (Setaria faberi); assay: Test G Post-Emergence Protocol; settings: Setaria faberi, post-emergence, 312 h
Method in brief: as §2

[9] = system: ivy-leaved morning glory (Ipomoea hederacea); assay: Test G Post-Emergence Protocol; settings: Ipomoea, post-emergence, 312 h
Method in brief: as §2

[10] = system: redroot pigweed (Amaranthus retroflexus); assay: Test G Post-Emergence Protocol; settings: Amaranthus retroflexus, post-emergence, 312 h
Method in brief: as §2

[11] = system: velvetleaf (Abutilon theophrasti); assay: Test G Post-Emergence Protocol; settings: Abutilon theophrasti, post-emergence, 312 h
Method in brief: as §2

corn (Zea mays) [12] = assay: Test G Post-Emergence Protocol; settings: Zea mays, post-emergence, 312 h
Method in brief: as §2

CN1C[C@H](c2ccc(C(F)(F)F)cc2)[C@@H](C(=O)Nc2nccc(C(F)(F)F)c2F)C1=O (racemic) [Compound 1436]
0%: pest or weed control at 15.625 g/ha ([1]; 15.625 g ai/ha, read-out: Barnyard grass damage rating (100=total damage to plant; 0=no damage to plant)) | pest or weed control at 62.5 g/ha ([1]; 62.5 g ai/ha, 100=total damage to plant, 0=no damage to plant, read-out: plant damage rating, Barnyardgrass) | pest or weed control at 250 g/ha ([1]; 250 g ai/ha, read-out: Barnyardgrass damage rating (100=total damage to plant; 0=no damage to plant)) | pest or weed control at 15.625 g/ha ([2]; 15.625 g ai/ha, read-out: Foxtail, Giant damage rating (100=total damage to plant; 0=no damage to plant)) | pest or weed control at 62.5 g/ha ([2]; 62.5 g ai/ha, 100=total damage to plant, 0=no damage to plant, read-out: plant damage rating, Foxtail, Giant) | pest or weed control at 250 g/ha ([2]; 250 g ai/ha, read-out: Foxtail, Giant damage rating (100=total damage to plant; 0=no damage to plant)) | pest or weed control at 15.625 g/ha ([3]; 15.625 g ai/ha, read-out: Morning-glory, Ivy-leaved damage rating (100=total damage to plant; 0=no damage to plant)) | pest or weed control at 62.5 g/ha ([3]; 62.5 g ai/ha, 100=total damage to plant, 0=no damage to plant, read-out: plant damage rating, Morningglory, Ivy-leaved) | pest or weed control at 250 g/ha ([3]; 250 g ai/ha, read-out: Morningglory, Ivy-leaved damage rating (100=total damage to plant; 0=no damage to plant)) | pest or weed control at 15.625 g/ha ([4]; 15.625 g ai/ha, read-out: Pigweed, Redroot damage rating (100=total damage to plant; 0=no damage to plant)) | pest or weed control at 62.5 g/ha ([4]; 62.5 g ai/ha, 100=total damage to plant, 0=no damage to plant, read-out: plant damage rating, Pigweed, Redroot) | pest or weed control at 250 g/ha ([4]; 250 g ai/ha, read-out: Pigweed, Redroot damage rating (100=total damage to plant; 0=no damage to plant)) | pest or weed control at 15.625 g/ha ([5]; 15.625 g ai/ha, read-out: Velvetleaf damage rating (100=total damage to plant; 0=no damage to plant)) | pest or weed control at 62.5 g/ha ([5]; 62.5 g ai/ha, 100=total damage to plant, 0=no damage to plant, read-out: plant damage rating, Velvetleaf) | pest or weed control at 250 g/ha ([5]; 250 g ai/ha, read-out: Velvetleaf damage rating (100=total damage to plant; 0=no damage to plant)) | plant injury at 15.625 g/ha (corn (Zea mays) [6]; 15.625 g ai/ha, read-out: Corn damage rating (100=total damage to plant; 0=no damage to plant)) | plant injury at 62.5 g/ha (corn (Zea mays) [6]; 62.5 g ai/ha, 100=total damage to plant, 0=no damage to plant, read-out: plant damage rating, Corn) | plant injury at 250 g/ha (corn (Zea mays) [6]; 250 g ai/ha, read-out: Corn damage rating (100=total damage to plant; 0=no damage to plant)) | pest or weed control at 15.625 g/ha ([7]; 15.625 g ai/ha, evaluated after 13 days (100=total damage to plant; 0=no damage to plant), read-out: Barnyardgrass damage rating) | pest or weed control at 62.5 g/ha ([7]; 62.5 g ai/ha, evaluated after 13 days, read-out: Barnyardgrass damage rating (100=total damage to plant; 0=no damage to plant)) | pest or weed control at 250 g/ha ([7]; 250 g ai/ha, evaluated after 13 days, read-out: damage to plant, Barnyardgrass (100=total damage to plant; 0=no damage to plant)) | pest or weed control at 15.625 g/ha ([8]; 15.625 g ai/ha, evaluated after 13 days (100=total damage to plant; 0=no damage to plant), read-out: Foxtail, Giant damage rating) | pest or weed control at 62.5 g/ha ([8]; 62.5 g ai/ha, evaluated after 13 days, read-out: Foxtail, Giant damage rating (100=total damage to plant; 0=no damage to plant)) | pest or weed control at 250 g/ha ([8]; 250 g ai/ha, evaluated after 13 days, read-out: damage to plant, Foxtail, Giant (100=total damage to plant; 0=no damage to plant)) | pest or weed control at 15.625 g/ha ([9]; 15.625 g ai/ha, evaluated after 13 days (100=total damage to plant; 0=no damage to plant), read-out: Morningglory, Ivy-leaved damage rating) | pest or weed control at 62.5 g/ha ([9]; 62.5 g ai/ha, evaluated after 13 days, read-out: Morningglory, Ivy-leaved damage rating (100=total damage to plant; 0=no damage to plant)) | pest or weed control at 250 g/ha ([9]; 250 g ai/ha, evaluated after 13 days, read-out: damage to plant, Morningglory, Ivy-leaved (100=total damage to plant; 0=no damage to plant)) | pest or weed control at 15.625 g/ha ([10]; 15.625 g ai/ha, evaluated after 13 days (100=total damage to plant; 0=no damage to plant), read-out: Pigweed, Redroot damage rating) | pest or weed control at 62.5 g/ha ([10]; 62.5 g ai/ha, evaluated after 13 days, read-out: Pigweed, Redroot damage rating (100=total damage to plant; 0=no damage to plant)) | pest or weed control at 250 g/ha ([10]; 250 g ai/ha, evaluated after 13 days, read-out: damage to plant, Pigweed, Redroot (100=total damage to plant; 0=no damage to plant)) | pest or weed control at 15.625 g/ha ([11]; 15.625 g ai/ha, evaluated after 13 days (100=total damage to plant; 0=no damage to plant), read-out: Velvetleaf damage rating) | pest or weed control at 62.5 g/ha ([11]; 62.5 g ai/ha, evaluated after 13 days, read-out: Velvetleaf damage rating (100=total damage to plant; 0=no damage to plant)) | pest or weed control at 250 g/ha ([11]; 250 g ai/ha, evaluated after 13 days, read-out: damage to plant, Velvetleaf (100=total damage to plant; 0=no damage to plant)) | plant injury at 15.625 g/ha (corn (Zea mays) [12]; 15.625 g ai/ha, evaluated after 13 days (100=total damage to plant; 0=no damage to plant), read-out: Corn damage rating) | plant injury at 62.5 g/ha (corn (Zea mays) [12]; 62.5 g ai/ha, evaluated after 13 days, read-out: Corn damage rating (100=total damage to plant; 0=no damage to plant)) | plant injury at 250 g/ha (corn (Zea mays) [12]; 250 g ai/ha, evaluated after 13 days, read-out: damage to plant, Corn (100=total damage to plant; 0=no damage to plant))
